According to the supplement of paper PMC10307832:

Assays:
Assay in all cases: relative viability (nuclei count vs DMSO), 5 days (fraction); higher = more cells survive
[1] = tested on: SK-MES-1
Method in brief: (§1)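 Lung cancer cell lines in 1536-well plates were dosed by pin tool the day after seeding, either with one drug alone or with a fixed anchor-drug dose plus five library-drug doses (not always all listed) in √10 steps. After 5 days, cells were fixed and their nuclei stained in one step (final 0.05% Triton X-100, 1% formaldehyde, 1 ug/ml Hoechst), then counted on 4× images. Relative viability is the nuclei count in treated wells divided by that in vehicle wells. Values are medians of duplicate plates.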

[2] = tested on: NCI-H1651
Method in brief: as §1

[3] = tested on: NCI-H460
Method in brief: as §1

[4] = tested on: LCLC-103H
Method in brief: as §1

[5] = tested on: NCI-H1355
Method in brief: as §1

[6] = tested on: PC-14
Method in brief: as §1

[7] = tested on: NCI-H322M
Method in brief: as §1

[8] = tested on: NCI-H520
Method in brief: as §1

[9] = tested on: NCI-H1792
Method in brief: as §1

[10] = tested on: NCI-H727
Method in brief: as §1

[11] = tested on: RERF-LC-KJ
Method in brief: as §1

[12] = tested on: NCI-H596
Method in brief: as §1

[13] = tested on: NCI-H1915
Method in brief: as §1

[14] = tested on: NCI-H661
Method in brief: as §1

[15] = tested on: LXF-289
Method in brief: as §1

[16] = tested on: NCI-H1563
Method in brief: as §1

[17] = tested on: NCI-H3122
Method in brief: as §1

[18] = tested on: NCI-H1755
Method in brief: as §1

[19] = tested on: NCI-H2347
Method in brief: as §1

[20] = tested on: NCI-H441
Method in brief: as §1

In the case of COc1cc2nccc(Oc3ccc(NC(=O)Nc4cc(C)on4)c(Cl)c3)c2cc1OC [Tivozanib] + Cc1nc(NC(=O)N2CCC[C@H]2C(N)=O)sc1-c1ccnc(C(C)(C)C(F)(F)F)c1 [Alpelisib] (partner 2 µM), the relative viability ([1]; first compound 0.005 µM) is reported as 0.763, the relative viability ([1]; first compound 0.01581 µM) is reported as 1.08 and the relative viability ([1]; first compound 0.05 µM) is reported as 0.876. For the same molecule, the relative viability ([1]; first compound 0.1581 µM) was 0.869, the relative viability ([1]; first compound 0.5 µM) was 0.857 and the relative viability ([2]; first compound 0.005 µM) was 0.985. The relative viability ([2]; first compound 0.01581 µM) was 0.842, the relative viability ([2]; first compound 0.05 µM) was 0.781 and the relative viability ([2]; first compound 0.1581 µM) was 0.879. For the same molecule, the relative viability ([2]; first compound 0.5 µM) was 0.889, the relative viability ([3]; first compound 0.005 µM) was 0.483 and the relative viability ([3]; first compound 0.01581 µM) was 0.422. It also gave a relative viability ([3]; first compound 0.05 µM) of 0.454, a relative viability ([3]; first compound 0.1581 µM) of 0.609 and a relative viability ([3]; first compound 0.5 µM) of 0.543. For the same molecule, the relative viability ([4]; first compound 0.005 µM) was 0.951, the relative viability ([4]; first compound 0.01581 µM) was 0.938 and the relative viability ([4]; first compound 0.05 µM) was 1.04. For the same molecule, the relative viability ([4]; first compound 0.1581 µM) was 0.997, the relative viability ([4]; first compound 0.5 µM) was 1.01 and the relative viability ([5]; first compound 0.005 µM) was 0.766. It also gave a relative viability ([5]; first compound 0.01581 µM) of 0.693, a relative viability ([5]; first compound 0.05 µM) of 0.887 and a relative viability ([5]; first compound 0.5 µM) of 0.882. The relative viability ([6]; first compound 0.005 µM) was 0.89, the relative viability ([6]; first compound 0.01581 µM) was 0.993 and the relative viability ([6]; first compound 0.05 µM) was 1.07. It also gave a relative viability ([6]; first compound 0.1581 µM) of 0.911, a relative viability ([6]; first compound 0.5 µM) of 0.873 and a relative viability ([7]; first compound 0.005 µM) of 0.743. It also gave a relative viability ([7]; first compound 0.01581 µM) of 0.764, a relative viability ([7]; first compound 0.05 µM) of 0.767 and a relative viability ([7]; first compound 0.1581 µM) of 0.756. For the same molecule, the relative viability ([7]; first compound 0.5 µM) was 0.84, the relative viability ([8]; first compound 0.005 µM) was 0.773 and the relative viability ([8]; first compound 0.01581 µM) was 0.847. It also gave a relative viability ([8]; first compound 0.05 µM) of 1.02, a relative viability ([8]; first compound 0.1581 µM) of 0.74 and a relative viability ([8]; first compound 0.5 µM) of 0.714. The relative viability ([9]; first compound 0.005 µM) was 0.728, the relative viability ([9]; first compound 0.01581 µM) was 0.778 and the relative viability ([9]; first compound 0.05 µM) was 0.786. The relative viability ([9]; first compound 0.1581 µM) was 0.847, the relative viability ([9]; first compound 0.5 µM) was 0.812 and the relative viability ([10]; first compound 0.005 µM) was 0.505. It also gave a relative viability ([10]; first compound 0.01581 µM) of 0.501, a relative viability ([10]; first compound 0.05 µM) of 0.675 and a relative viability ([10]; first compound 0.5 µM) of 0.615. It also gave a relative viability ([11]; first compound 0.005 µM) of 0.729, a relative viability ([11]; first compound 0.01581 µM) of 0.757 and a relative viability ([11]; first compound 0.05 µM) of 0.965. It also gave a relative viability ([11]; first compound 0.1581 µM) of 0.689, a relative viability ([11]; first compound 0.5 µM) of 0.834 and a relative viability ([12]; first compound 0.005 µM) of 0.462. For the same molecule, the relative viability ([12]; first compound 0.01581 µM) was 0.464, the relative viability ([12]; first compound 0.05 µM) was 0.544 and the relative viability ([12]; first compound 0.1581 µM) was 0.47. For the same molecule, the relative viability ([12]; first compound 0.5 µM) was 0.595, the relative viability ([13]; first compound 0.005 µM) was 1.08 and the relative viability ([13]; first compound 0.01581 µM) was 1.04. The relative viability ([13]; first compound 0.05 µM) was 1.11, the relative viability ([13]; first compound 0.1581 µM) was 0.99 and the relative viability ([13]; first compound 0.5 µM) was 0.961. For the same molecule, the relative viability ([14]; first compound 0.005 µM) was 0.52, the relative viability ([14]; first compound 0.01581 µM) was 0.713 and the relative viability ([14]; first compound 0.05 µM) was 0.609. It also gave a relative viability ([14]; first compound 0.1581 µM) of 0.302, a relative viability ([14]; first compound 0.5 µM) of 0.525 and a relative viability ([15]; first compound 0.005 µM) of 1.02. For the same molecule, the relative viability ([15]; first compound 0.01581 µM) was 0.966, the relative viability ([15]; first compound 0.05 µM) was 1.06 and the relative viability ([15]; first compound 0.1581 µM) was 1.09. For the same molecule, the relative viability ([15]; first compound 0.5 µM) was 1.02, the relative viability ([16]; first compound 0.005 µM) was 0.926 and the relative viability ([16]; first compound 0.01581 µM) was 0.976. The relative viability ([16]; first compound 0.05 µM) was 0.972, the relative viability ([16]; first compound 0.1581 µM) was 0.843 and the relative viability ([16]; first compound 0.5 µM) was 0.835. The relative viability ([17]; first compound 0.005 µM) was 0.668, the relative viability ([17]; first compound 0.01581 µM) was 0.792 and the relative viability ([17]; first compound 0.05 µM) was 0.798. The relative viability ([17]; first compound 0.1581 µM) was 0.973, the relative viability ([17]; first compound 0.5 µM) was 0.983 and the relative viability ([18]; first compound 0.005 µM) was 0.925. For the same molecule, the relative viability ([18]; first compound 0.01581 µM) was 0.888, the relative viability ([18]; first compound 0.05 µM) was 1.01 and the relative viability ([18]; first compound 0.1581 µM) was 0.934. It also gave a relative viability ([18]; first compound 0.5 µM) of 0.84, a relative viability ([19]; first compound 0.005 µM) of 1.01 and a relative viability ([19]; first compound 0.01581 µM) of 1.03. The relative viability ([19]; first compound 0.05 µM) was 1.03, the relative viability ([19]; first compound 0.1581 µM) was 1.1 and the relative viability ([19]; first compound 0.5 µM) was 0.987. It also gave a relative viability ([20]; first compound 0.005 µM) of 0.711, a relative viability ([20]; first compound 0.01581 µM) of 0.452 and a relative viability ([20]; first compound 0.05 µM) of 0.57. It also gave a relative viability ([20]; first compound 0.1581 µM) of 0.632 and a relative viability ([20]; first compound 0.5 µM) of 0.56.
